Tests used:
[1] = C7 inactivation in H2O2, HPLC; format: physicochemical
Protocol: Where indicated, 1 mM ABTS was also present. Components were mixed and, after various incubations times, a 30 μl aliquot was injected onto the HPLC. The mixtures were chromatographed on an octadecyl-silica column using a mobile phase consisting of 60% methanol:40% 0.1 M NaCl and a flow rate of 1 ml/min. […] A third component, with a retention time of 4.8 min, was detectable under some conditions; its appearance and disappearance was monitored but it was not further analyzed. In this system, ABTS and its oxidized product had retention times of 3.4 and 3.1-min, respectively, well resolved from the peaks of interest. Absorbance spectra collected during each run allowed the identity of C7 and salicylaldehyde to be verified. All peaks were integrated based upon their absorbance at 240 nm. The results are expressed as the percentage of maximum peak area. […] For the two putative breakdown products, this is equivalent to the largest peak observed during the course of the ˜2000 sec incubation period.

Rat brain slices = test: Rat brain slice ischemia EPSP system; format: cell-based; conditions: 50 μM; untreated slices recovered only about 40%
Protocol: A widely used assay to determine the therapeutic potential of molecules in brain ischemia (stroke) consists of evaluating their ability to prevent irreversible damage induced by an anoxic episode in brain slices maintained under physiological conditions. Rat brain slices were maintained at 35° C. in an interface chamber in an artificial cerebrospinal fluid containing: 124 mM NaCl, 3 mM KCl, 1.25 mM KH2PO4, 3 mM CaCl, 1 mM MgCl2, 26 mM NaHCO3, 10 mM D-glucose, and 2 mM L-ascorbate, continuously gassed with a mixture of O2:CO2 (95:5). The atmosphere of the chamber was also continuously gased with the mixture of O2:CO2 (95:5), except during the anoxic episode when it was replaced by N2. Axons were electrically stimulated and the evoked excitatory post-synaptic potentials (EPSPs) were recorded using microelectrodes.
The extent of permanent damage can be quantified by measuring both the amplitude (in mV) and the initial slope (in mV/msec) of the EPSP.
After 5 minutes of baseline recording, O2 was replaced by N2 for an average of 5 minutes. O2 was then reintroduced and recording was continued for another 50 minutes. […] In contrast, recovery in untreated brain slices was only about 40% of pre-ischemia levels.
As an additional assessment of efficacy, the percentage of viable slices following repeated ischemic episodes was evaluated. […]

[2] = tested on: Isolated Iron-overloaded Rat Hearts; test: Isolated iron-overloaded rat hearts submitted to ischemia and reperfusion
Protocol: Rats received an intramuscular injection of 0.25 ml of an iron-dextran solution (100 g iron hydroxide, 99 g dextran, water up to 11) every third day during a 5-week period to achieve a significant iron overload in cardiac tissue. At the end of this treatment, rats were anesthetized with sodium pentobarbital (40 mg/kg) and heparin (1,000 IU/kg) was administered via a femoral vein. Hearts were then removed and rapidly perfused through the aorta according to the technique described by Langendorff [Langendorff, O., Pflügers Arch. 61: 291, 1895] at a constant flow rate of 11 ml/minute. […] At the end of this period, systolic and diastolic ventricular pressures and heart beat rate (HR) were recorded through a pressure transducer linked to the ventricular balloon. Left Ventricular Developed Pressure (LVDP) was calculated by the difference between systolic and diastolic pressure and the product HR×LVDP was taken as an index of oxygen consumption. […] During this 15 minute reperfusion, heart rate, and diastolic and systolic pressures were monitored. Early ventricular fibrillations were analyzed 1 min. after the start of the reperfusion. […]
Mitochondria were classified into Type A (normal), Type B (swollen, unbroken), and Type C (ruptured membranes). […] The results are expressed as percentages.

[3] = 100 μM C7, 1 mM H2O2, with 1 mM ABTS

[Cl][Mn]1[O]c2ccccc2C=NCCN=Cc2ccccc2[O]1 [Compound C7]
half life of the C7 peak ([1]; 100 μM C7, 1 mM H2O2, pH 8.1, absence of ABTS): ~40 s | C7 peak that disappeared rapidly [1, 3]: about 20% | C7 remaining over the entire ~2000 sec incubation [1, 3]: 80% | recovery of EPSP amplitude and slopes after ischemia/reoxygenation (Rat brain slices): recovered to pre-ischemia levels | protection of hearts from ischemia/reoxygenation damage, functionally and structurally ([2]; C7 50 μM): effectively protected hearts | Mitochondria Type B (swollen, unbroken) ([2]; electron microscopy after 15 minute reperfusion): 15.2#□ %

Reference: patent US6900198B2, “Synthetic catalytic free radical scavengers useful as antioxidants for prevention and therapy of disease” (Eukarion, Inc., priority 1995, dated 2005)
